We go through 1 compound from patent US20080051463A1, “ANTHRACENE COMPOUNDS AND THEIR USE FOR TREATING BENIGN AND MALIGNANT TUMOR DISORDERS” (AETERNA ZENTARIS GmbH, priority 2006, published 2008).

In test [1] the target is T1, Eg513-437 (Homo sapiens, UniProt P52732).
T1 construct: read as Eg5 residues 13-437
T1 sequence (P52732 1-1056): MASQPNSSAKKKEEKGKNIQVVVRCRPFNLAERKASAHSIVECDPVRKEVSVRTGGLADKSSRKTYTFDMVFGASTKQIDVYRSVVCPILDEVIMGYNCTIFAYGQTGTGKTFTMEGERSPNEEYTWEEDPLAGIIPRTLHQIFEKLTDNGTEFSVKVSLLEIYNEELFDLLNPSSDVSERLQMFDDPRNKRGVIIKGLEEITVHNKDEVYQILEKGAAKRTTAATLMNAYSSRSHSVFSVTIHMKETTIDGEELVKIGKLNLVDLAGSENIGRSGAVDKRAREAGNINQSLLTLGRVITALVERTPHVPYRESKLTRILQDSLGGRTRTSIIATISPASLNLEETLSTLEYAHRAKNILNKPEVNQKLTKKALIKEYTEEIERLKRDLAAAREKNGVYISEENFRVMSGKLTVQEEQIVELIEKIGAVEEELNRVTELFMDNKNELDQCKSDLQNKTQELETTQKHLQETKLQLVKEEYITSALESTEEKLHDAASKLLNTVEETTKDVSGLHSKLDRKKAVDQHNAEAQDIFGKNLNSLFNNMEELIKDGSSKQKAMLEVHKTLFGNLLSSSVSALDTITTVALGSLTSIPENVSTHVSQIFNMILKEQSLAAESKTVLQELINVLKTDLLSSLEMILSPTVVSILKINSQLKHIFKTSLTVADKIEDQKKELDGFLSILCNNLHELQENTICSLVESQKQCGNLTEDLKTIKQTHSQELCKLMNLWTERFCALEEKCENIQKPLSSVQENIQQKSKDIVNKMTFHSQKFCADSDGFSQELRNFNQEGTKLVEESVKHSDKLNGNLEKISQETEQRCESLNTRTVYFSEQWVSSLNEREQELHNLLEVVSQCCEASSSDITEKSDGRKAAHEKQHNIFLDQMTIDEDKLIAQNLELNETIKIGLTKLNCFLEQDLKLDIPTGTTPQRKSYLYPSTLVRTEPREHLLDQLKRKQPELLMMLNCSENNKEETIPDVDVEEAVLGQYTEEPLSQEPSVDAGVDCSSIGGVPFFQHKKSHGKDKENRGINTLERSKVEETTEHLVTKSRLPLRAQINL
In words: Inhibition of kinesin Eg5 activity, recombinant Eg513-437. Format: biochemical. The conditions noted are these: recombinant Eg513-437 (Table 4). From the text:
(§1) In an in vitro test, compound 1 was examined for inhibition of Eg5 activity [Kodama, T. et al. J. Biochem. 99: 1465-1472 (1986)].
(§2) Here, the recombinant kinesins Eg513-437 (Table 3) and Eg51-406 (Table 4) were used.
(§3) Tables 4 and 5 state the EC50 values of Eg5 inhibition for the compound 1 according to the invention.

In test [2] the target is T2, Eg51-406 (Homo sapiens, UniProt P52732).
T2 construct: read as Eg5 residues 1-406
T2 sequence (P52732 1-1056): T1 sequence (P52732 1-1056)
In words: Inhibition of kinesin Eg5 activity, recombinant Eg51-406. As to conditions: recombinant Eg51-406 (Table 5). Format: biochemical.
Description: as §1, §2, §3

The test system of test [3] is RKOp27 human colon carcinoma cells, p27kiP1 induced. In words: Proliferation test, RKOp27 cell system with induced p27kiP1 expression. The conditions noted are these: RKOp27 with induced expression of p27kiP1, read-out: RKOP27ind EC50. Format: cell-based. From the text:
(§4) The antiproliferative activity of the compounds 1, 2, 4, 6, 7, 9, 10, 11, 12 and 13 according to the invention was investigated in a proliferation test performed on established tumor cell lines (D. A. Scuderio et al. Cancer Res. 1988, 48: 4827-4833).
(§5) The test used determines the cellular dehydrogenase activity and makes it possible to determine cell viability and determine cell number indirectly.
(§6) The cell lines used are the human cervical carcinoma cell line KB/HeLa (ATCC CCL17), the ovarian adenocarcinoma cell line SKOV-3 (ATCC HTB77), the human glioblastoma cell line SF-268 (NCI-503138) and the lung carcinoma cell line NCI-H460 (NCI-503473). In addition, an RKOp27 cell system was used for investigating the cell cycle-specific effect of the substance (M. Schmidt et al. Oncogene 2000, 19(20): 2423-9).
(§7) RKO is a human colon carcinoma line in which expression of the cell cycle inhibitor p27^kiP1 can be induced using the ecdysone expression system and lead to cell cycle arrest specifically in […].
(§8) By contrast, cell cycle-specific substances, such as, for example, tubulin inhibitors, are only cytotoxic when cells are not arrested and the cell cycle is passed through.

Test [4] has as its system bovine tubulin. Kind of test: Inhibition of the polymerization of bovine tubulin (in vitro). Format: biochemical. From the text: In this test, tubulin purified by polymerization and depolymerization cycles is used, which is polymerized by addition of GTP and heating.
Table 1 states the %-inhibition values and Table 2 states the EC50 values of polymerization inhibition of tubulin with 30% associated proteins (MAPs).

For test [5], the system named is human glioblastoma cell line SF-268. In words: Proliferation test (cellular dehydrogenase activity), SF-268. It is filed as cell-based.
Description: as §4, §5, §6

For test [6], the system named is lung carcinoma cell line NCI-H460. In words: Proliferation test (cellular dehydrogenase activity), NCI-H460. Format: cell-based. The conditions noted are these: Homo sapiens.
Description: as §4, §5, §6

In test [7] the test system is RKOp27 human colon carcinoma cells. Kind of test: Proliferation test, RKOp27 cell system without p27kiP1 expression. It is filed as cell-based. The conditions noted are these: RKOp27 without expression of p27kiP1.
Description: as §4, §5, §6, §7, §8

≈ marks a conversion by molar mass, not a printed value. Where “and” joins values, the source holds several entries; their conditions need not be identical. Equal values may be shown once.

Turning to `O=C(C=C1c2ccccc2C(=O)c2ccccc21)c1ccc(O)c(O)c1` [Compound 1, 10-[2-(3,4-dihydroxy-phenyl)-2-oxo-ethylidene]-10H-anthracen-9-one], the EC50 was 6.92 µM and 7.24 µM and 5.46 µM and 5.9 µM in test [1]; 37.1 µM in test [2]; greater than 3.16 µg/mL in test [3]; 0.076 µg/mL (≈ 0.222 µM) in test [5]; 0.146 µg/mL (≈ 0.426 µM) in test [6]; 0.083 µg/mL (≈ 0.242 µM) in test [7]. Besides, the “Inhibition at 10 μg/ml [%]” value in test [4] (10 μg/ml, tubulin with 30% associated proteins (MAPs), repeat values) is 98.2% and 83.0% and 86.9% and 79.7%. The “EC50 of polymerization inhibition of tubulin” value in test [4] (bovine tubulin with 30% associated proteins (MAPs)) was 7.15 µg/mL and 8.02 µg/mL.
